Patent US9415030B2 (priority 2008, dated 2016)
Like-named read-outs stand apart in the source and are kept apart here.

Experiments:
clinical = conditions: human, in vivo
Source text: Hyperammonemia is seen in several abnormal conditions, e.g. inborn errors of metabolism that affect the urea cycle, small bowel syndrome, and others.

lupus mice = conditions: fed a lot of arginine in their diet; cited from earlier work
[1] = tested on: cerebellar granule neurons; conditions: cultured cerebellar granule neurons; cited from earlier work
[2] = tested on: human cerebellar granule neurons; conditions: cultured cerebellar granule neurons; cited from earlier work
cognition = tested on: cognition
Source text: Available evidence consists of records for formal cognitive testing, school records from pre-kindergarten through college (in progress), SAT scores, including scores on practice tests in an SAT preparation course, and diary-recorded observations made in parental tutoring sessions occurring from first grade through college.
Preparation for the SAT test included a test preparation course that involved practice tests that simulated actual test conditions. […] It should be noted that both official and unofficial SAT tests were taken in the standard time intervals.
No parental tutoring was given and it should be noted that Subject 1 received no special accommodations in this course.
In the course of these explanations, the importance of these facts was strongly emphasized. One and a half months after the course was over, Subject 1 was again queried by their parent on this topic.

NMDA co-agonist site = NMDA co-agonist site (Homo sapiens, UniProt Q05586); conditions: 0.8 g/kg body weight/day; cited from earlier work
[3] = tested on: OCD, BDD, and ADHD symptoms
Source text: Although individual symptoms have varied in intensity over time, the basic spectrum of signs and symptoms appears to have been unchanged over 15 years.
Participation in family gatherings has increased.

OCD = assay: Earlier treatments of Subject 1 (SSRIs, atypical neuroleptics, IVIG); type: in vivo, human; conditions: Subject 1, before glycine treatment
[4] = 1 year after initiation of glycine treatment

N=C(N)NCCC[C@H](N)C(=O)O [arginine, L-arginine]
concentration at 3 h (clinical): 98 µM | plasma ammonia concentration (clinical): ~94 µM | survival (lupus mice): die more quickly

CC[C@H]1OC(=O)[C@H](C)[C@@H](O[C@H]2C[C@@](C)(OC)[C@@H](O)[C@H](C)O2)[C@H](C)[C@@H](O[C@@H]2O[C@H](C)C[C@H](N(C)C)[C@H]2O)[C@](C)(OC)C[C@@H](C)C(=O)[C@H](C)[C@@H](O)[C@]1(C)O [clarithromycin]
NMDA receptor mediated excitotoxic cell death [1]: inhibited NMDA receptor mediated excitotoxic cell death | kainate-mediated excitotoxicity [2]: not kainate-mediated excitotoxicity

glycine
college algebra test scores (cognition; 10 and 14 weeks after glycine cessation): low 90% range | college algebra test scores (cognition; 21 and 26 weeks after glycine cessation): low 80% range | improvement of SAT scores during Kaplan preparation course (cognition; course begun six months after starting glycine): approximately 250 points | cognition (cognition; high-dose glycine treatment): cognition improved | memory consolidation and/or retrieval (cognition; nine months after glycine cessation): return of difficulties in memory consolidation and/or retrieval | SAT math score, official test (cognition; sustained glycine treatment): 520 | SAT math score, practice test 1 (cognition; sustained glycine treatment): 390 | SAT math score, practice test 2 (cognition; sustained glycine treatment): 460 | SAT math score, practice test 3 (cognition; sustained glycine treatment): 490 | SAT verbal score, official test (cognition; sustained glycine treatment): 660 | SAT verbal score, practice test 1 (cognition; sustained glycine treatment): 540 | SAT verbal score, practice test 2 (cognition; sustained glycine treatment): 540 | SAT verbal score, practice test 3 (cognition; sustained glycine treatment): 600 | percentile of official SAT verbal score (cognition; sustained glycine treatment): 90 percentile | NMDA activity (NMDA co-agonist site): moderately enhanced NMDA activity | intolerance of mirrors [3, 4]: reduced intolerance of mirrors | perseverative behavior during taxi rides [3, 4]: much reduced | decline on glycine cessation ([3]; 6 week cessation with no infection): little or no decline | BDD signs and symptoms after glycine cessation ([3]; 9 month cessation begun May 2006): clear increase in BDD signs and symptoms | line crossing obsession ([3]; Subject 1, during glycine treatment): no signs of the line crossing obsession | time to first behavioral improvement after initiation of glycine treatment ([3]; Subject 1, parent's report): about three | recovery of gains after glycine resumption ([3]; over three months after resumption): previous gains were largely recovered | BDD signs and symptoms ([3]; periods of sustained glycine treatment): continued to improve

Fc1ccc([C@@H]2CCNC[C@H]2COc2ccc3c(c2)OCO3)cc1 [Paxil]
response of OCD to treatment (OCD): non-responder
